Experimental data: patent US20240150300A1, “S-CONFIGURATION-CONTAINING AMINO BENZAMIDE PYRIDAZINONE COMPOUND, PREPARATION METHOD THEREFOR, AND PHARMACEUTICAL COMPOSITION AND APPLICATION THEREOF” (SHANGHAI INSTITUTE OF MATERIA MEDICA, CHINESE ACADEMY OF …, priority 2021, published 2024)

Tests used:
[1] = system: HCT-116 cells; assay: Antiproliferative activity, CCK-8, HCT-116; type: cell-based, human
Description: (§1) The tumor cells used were purchased from commercial cell banks (HCT116 purchased from ATCC, SKM 1 purchased from JCRB). The growth inhibition of cells was detected using the CCK-8 method. The specific steps were as follows. Cells in the logarithmic growth phase were seeded into a 96 well culture plate at an appropriate density, with 90 μL/well. After overnight cultivation, different concentrations of drugs were added for treatment for 72 h, with each concentration in triplicate, and corresponding concentration of vehicle control and cell-free blank wells were also set. After the treatment, 10 μL of CCK-8 was added to each well and the plate was incubated in an incubator for 2-4 hours, and the optical density (OD value) at a wavelength of 450 nm was measured using a SpectraMax 190 microplate reader. […] The experiment was repeated twice, and the mean value and SD were calculated.

[2] = system: SKM-1 cells; assay: Antiproliferative activity, CCK-8, SKM-1; type: cell-based, human
Description: as §1
With reference to HCT-116 cell proliferation inhibition test method, the inhibitory activity of the compounds on the proliferation of human myelodysplastic syndrome cell SKM-1 was tested.

[3] = target: HDAC6 (Homo sapiens (Human), UniProt Q9UBN7); assay: In vitro histone deacetylase activity assay (HTRF), HDAC6; type: biochemical; conditions: H3(1-21) K9Ac biotin substrate
Description: (§2) Human recombinant HDAC family proteins with His and GST tags were expressed using insect baculovirus expression system, and a biologically active HDAC family recombinant protein was obtained through Ni affinity column protein purification. HTRF detection method was used with H3(1-21) K9Ac biotin as the substrate. […] Briefly, 20 μl of the activity testing system included the HDAC substrate (0.2 μM. 4 μl), the Human Recombinant Protein HDAC (2-5 ng)/μl.

[4] = target: HDAC3 (Homo sapiens (Human), UniProt O15379); assay: HDAC subtype inhibitory activity (HTRF), HDAC3; type: biochemical
Description: as §2

[5] = target: HDAC10 (Homo sapiens (Human), UniProt Q969S8); assay: HDAC subtype inhibitory activity (HTRF), HDAC10; type: biochemical
Description: as §2

[6] = target: HDAC8 (Homo sapiens (Human), UniProt Q9BY41); assay: HDAC subtype inhibitory activity (HTRF), HDAC8; type: biochemical
Description: as §2

[7] = target: HDAC2 (Homo sapiens (Human), UniProt Q92769); assay: HDAC subtype inhibitory activity (HTRF), HDAC2; type: biochemical
Description: as §2

[8] = target: HDAC1 (Homo sapiens (Human), UniProt Q13547); assay: In vitro histone deacetylase activity assay (HTRF), HDAC1; type: biochemical; conditions: H3(1-21) K9Ac biotin substrate
Description: as §2

Chain of HDAC1 (Q13547 whole entry): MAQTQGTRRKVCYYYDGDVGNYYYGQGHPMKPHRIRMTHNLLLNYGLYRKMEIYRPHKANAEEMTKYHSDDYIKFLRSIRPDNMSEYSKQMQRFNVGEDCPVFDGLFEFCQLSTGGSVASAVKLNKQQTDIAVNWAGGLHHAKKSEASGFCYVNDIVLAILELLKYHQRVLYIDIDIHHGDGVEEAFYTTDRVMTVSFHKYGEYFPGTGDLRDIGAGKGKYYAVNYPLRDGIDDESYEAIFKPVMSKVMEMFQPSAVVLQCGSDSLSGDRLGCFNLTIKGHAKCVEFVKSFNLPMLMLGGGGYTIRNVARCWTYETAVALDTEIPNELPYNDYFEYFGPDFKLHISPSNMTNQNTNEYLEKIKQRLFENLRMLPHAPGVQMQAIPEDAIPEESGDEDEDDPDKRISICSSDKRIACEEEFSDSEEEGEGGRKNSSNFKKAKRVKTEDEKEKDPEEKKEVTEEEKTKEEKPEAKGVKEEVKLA
Chain of HDAC6 (Q9UBN7 whole entry): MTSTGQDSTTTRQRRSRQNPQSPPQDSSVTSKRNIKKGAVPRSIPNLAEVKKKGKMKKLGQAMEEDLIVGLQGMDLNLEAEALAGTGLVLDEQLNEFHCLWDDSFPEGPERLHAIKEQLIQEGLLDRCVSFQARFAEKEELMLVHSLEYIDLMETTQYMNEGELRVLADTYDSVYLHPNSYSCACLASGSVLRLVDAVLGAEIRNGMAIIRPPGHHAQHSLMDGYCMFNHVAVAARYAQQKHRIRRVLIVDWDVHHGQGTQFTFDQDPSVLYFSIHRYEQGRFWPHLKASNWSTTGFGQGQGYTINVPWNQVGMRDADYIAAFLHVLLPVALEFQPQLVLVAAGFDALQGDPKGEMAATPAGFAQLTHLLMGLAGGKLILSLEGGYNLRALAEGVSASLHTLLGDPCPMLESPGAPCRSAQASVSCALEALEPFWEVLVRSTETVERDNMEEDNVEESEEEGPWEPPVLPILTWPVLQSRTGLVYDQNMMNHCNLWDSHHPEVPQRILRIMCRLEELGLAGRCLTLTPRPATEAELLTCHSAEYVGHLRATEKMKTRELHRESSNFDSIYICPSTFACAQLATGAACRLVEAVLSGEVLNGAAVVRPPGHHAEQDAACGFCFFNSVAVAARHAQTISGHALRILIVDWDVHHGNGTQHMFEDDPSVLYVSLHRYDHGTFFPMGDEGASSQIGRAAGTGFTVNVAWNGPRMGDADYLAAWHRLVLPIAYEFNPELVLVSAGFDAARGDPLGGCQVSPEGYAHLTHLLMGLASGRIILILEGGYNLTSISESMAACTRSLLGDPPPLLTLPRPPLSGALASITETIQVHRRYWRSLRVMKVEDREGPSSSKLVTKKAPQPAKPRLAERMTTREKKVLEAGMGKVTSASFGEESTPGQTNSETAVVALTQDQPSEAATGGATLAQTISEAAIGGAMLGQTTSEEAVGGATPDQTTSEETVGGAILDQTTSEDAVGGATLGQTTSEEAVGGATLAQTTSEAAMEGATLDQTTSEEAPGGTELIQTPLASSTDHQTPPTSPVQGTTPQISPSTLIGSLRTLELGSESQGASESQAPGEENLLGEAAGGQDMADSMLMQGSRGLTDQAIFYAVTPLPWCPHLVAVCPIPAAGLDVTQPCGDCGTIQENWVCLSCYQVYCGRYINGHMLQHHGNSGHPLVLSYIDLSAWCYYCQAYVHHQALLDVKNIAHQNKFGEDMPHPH
Chain of HDAC2 (Q92769 whole entry): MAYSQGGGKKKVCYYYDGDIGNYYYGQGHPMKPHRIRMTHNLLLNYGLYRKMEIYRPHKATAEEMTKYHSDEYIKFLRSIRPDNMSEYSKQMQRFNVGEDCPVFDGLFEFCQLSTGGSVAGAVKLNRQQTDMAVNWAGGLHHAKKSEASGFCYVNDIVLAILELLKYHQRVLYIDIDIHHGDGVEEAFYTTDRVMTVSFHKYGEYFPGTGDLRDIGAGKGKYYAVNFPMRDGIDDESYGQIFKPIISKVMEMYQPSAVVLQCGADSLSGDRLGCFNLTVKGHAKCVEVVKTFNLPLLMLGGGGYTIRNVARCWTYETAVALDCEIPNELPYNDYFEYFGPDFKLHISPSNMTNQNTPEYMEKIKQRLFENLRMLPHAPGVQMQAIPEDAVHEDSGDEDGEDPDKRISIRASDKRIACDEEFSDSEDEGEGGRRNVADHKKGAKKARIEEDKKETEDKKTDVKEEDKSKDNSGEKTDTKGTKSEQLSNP
Chain of HDAC8 (Q9BY41 whole entry): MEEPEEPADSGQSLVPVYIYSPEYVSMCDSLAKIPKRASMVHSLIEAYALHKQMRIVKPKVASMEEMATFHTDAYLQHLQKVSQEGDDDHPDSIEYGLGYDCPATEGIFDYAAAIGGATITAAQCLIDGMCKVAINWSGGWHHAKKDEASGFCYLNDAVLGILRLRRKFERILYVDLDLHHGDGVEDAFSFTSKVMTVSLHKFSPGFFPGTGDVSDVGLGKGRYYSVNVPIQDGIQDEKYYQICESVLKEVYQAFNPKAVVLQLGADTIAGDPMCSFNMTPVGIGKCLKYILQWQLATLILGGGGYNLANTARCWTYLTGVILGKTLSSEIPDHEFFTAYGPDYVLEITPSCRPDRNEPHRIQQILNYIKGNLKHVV
Chain of HDAC3 (O15379 whole entry): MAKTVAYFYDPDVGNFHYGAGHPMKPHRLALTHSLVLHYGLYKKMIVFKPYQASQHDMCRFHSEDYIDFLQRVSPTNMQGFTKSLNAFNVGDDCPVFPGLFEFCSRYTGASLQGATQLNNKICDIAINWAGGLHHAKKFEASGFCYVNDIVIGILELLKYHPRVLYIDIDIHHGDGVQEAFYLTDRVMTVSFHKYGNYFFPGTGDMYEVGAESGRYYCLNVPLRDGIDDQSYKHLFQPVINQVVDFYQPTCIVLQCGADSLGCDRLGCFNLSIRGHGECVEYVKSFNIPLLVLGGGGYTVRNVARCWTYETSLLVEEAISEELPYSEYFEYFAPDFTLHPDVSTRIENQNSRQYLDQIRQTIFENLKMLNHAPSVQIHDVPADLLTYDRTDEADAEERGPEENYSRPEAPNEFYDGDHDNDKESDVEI
Chain of HDAC3 (Q9Y618 395-489 partner): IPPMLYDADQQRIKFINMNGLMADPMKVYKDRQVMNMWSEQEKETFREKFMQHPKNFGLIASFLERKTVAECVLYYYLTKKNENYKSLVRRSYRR
Chain of HDAC10 (Q969S8 whole entry): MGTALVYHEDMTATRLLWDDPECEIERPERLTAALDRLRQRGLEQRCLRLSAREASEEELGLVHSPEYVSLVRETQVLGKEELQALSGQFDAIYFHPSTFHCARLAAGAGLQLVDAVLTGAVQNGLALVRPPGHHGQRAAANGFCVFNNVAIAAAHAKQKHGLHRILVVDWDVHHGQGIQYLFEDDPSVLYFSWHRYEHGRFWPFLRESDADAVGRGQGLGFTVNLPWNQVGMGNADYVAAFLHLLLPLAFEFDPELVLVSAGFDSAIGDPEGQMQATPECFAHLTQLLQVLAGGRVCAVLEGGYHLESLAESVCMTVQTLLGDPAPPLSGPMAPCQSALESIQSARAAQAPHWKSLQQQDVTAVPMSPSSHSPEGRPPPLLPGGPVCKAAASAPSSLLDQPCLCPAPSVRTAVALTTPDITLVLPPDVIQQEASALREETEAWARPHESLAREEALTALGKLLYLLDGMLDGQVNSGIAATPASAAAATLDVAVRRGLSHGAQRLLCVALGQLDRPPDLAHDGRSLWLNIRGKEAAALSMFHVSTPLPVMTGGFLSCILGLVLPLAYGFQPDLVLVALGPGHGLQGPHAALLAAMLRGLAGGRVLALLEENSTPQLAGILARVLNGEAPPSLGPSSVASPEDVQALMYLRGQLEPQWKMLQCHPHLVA

SMILES | IC50 ([1]; Homo sapiens, HCT-116, 72 h) [µM] | IC50 ([2]; Homo sapiens, SKM-1, 72 h) [µM] | IC50 [3] [µM] | IC50 [4] [µM] | IC50 [5] [µM] | IC50 [6] [µM] | IC50 [7] [µM] | IC50 [8] [µM] | IC50 ([1]; 72 h) [µM] | IC50 ([2]; 72 h) [µM]
CC(c1ccc(C(=O)Nc2ccccc2N)cc1)n1nc(-c2ccc(CN(C)C)cc2)ccc1=O (racemic) [HYH-072 (racemate of I-2), reference compound] | 0.11 ± 0.007 | 0.09 ± 0.004 | – | – | – | – | – | – | – | –
CC(c1ccc(C(=O)Nc2ccc(F)cc2N)cc1)n1nc(-c2ccc(CN(C)C)cc2)ccc1=O (racemic) [HYH-073 (racemate of I-1), reference compound] | 0.38 ± 0.001 | 0.23 ± 0.01 | – | – | – | – | – | – | – | –
Nc1cc(F)ccc1NC(=O)c1ccc(CNC(=O)/C=C/c2cccnc2)cc1 [Chidamide, reference compound] | 1.7 ± 0.105 | 0.55 ± 0.004 | – | – | – | – | – | – | – | –
C[C@@H](c1ccc(C(=O)Nc2ccccc2N)cc1)n1nc(-c2ccc(CN(C)C)cc2)ccc1=O [Compound I-2] | 0.08 ± 0.002 | 0.06 ± 0.001 | > 10 | 0.39 ± 0.028 | > 100 | > 100 | 0.09 ± 0.002 | 0.0233 ± 0.0011 | – | –
C[C@@H](c1ccc(C(=O)Nc2ccccc2N)cc1)n1nc(-c2cccc(Cl)c2)ccc1=O [Compound I-3] | 0.39 ± 0.006 | 0.27 ± 0.013 | > 10 | – | – | – | – | 0.0524 ± 0.0102 | – | –
COc1cccc(-c2ccc(=O)n([C@@H](C)c3ccc(C(=O)Nc4ccccc4N)cc3)n2)c1 [Compound I-4] | 0.23 ± 0.004 | 0.16 ± 0.001 | > 10 | – | – | – | – | 0.0352 ± 0.00447 | – | –
C[C@@H](c1ccc(C(=O)Nc2ccccc2N)cc1)n1nc(-c2cnn(C)c2)ccc1=O [Compound I-5] | 0.28 ± 0.008 | 0.2 ± 0.001 | > 10 | – | – | – | – | 0.124 ± 0.0244 | – | –
C[C@@H](c1ccc(C(=O)Nc2ccccc2N)cc1)n1nc(-c2ccncc2)ccc1=O [Compound I-6] | 0.33 ± 0.004 | 0.24 ± 0.011 | > 10 | – | – | – | – | 0.0605 ± 0.00573 | – | –
C[C@@H](c1ccc(C(=O)Nc2cc(F)c(F)cc2N)cc1)n1nc(-c2ccc(CN(C)C)cc2)ccc1=O [Compound I-7] | 0.31 ± 0.018 | 0.21 ± 0.005 | > 10 | – | – | – | – | 0.0995 ± 0.0111 | – | –
COc1ccc(NC(=O)c2ccc([C@H](C)n3nc(-c4ccc(CN(C)C)cc4)ccc3=O)cc2)c(N)c1 [Compound I-8] | 0.87 ± 0.037 | 0.49 ± 0.016 | > 10 | – | – | – | – | 0.126 ± 0.0183 | – | –
C[C@@H](c1ccc(C(=O)Nc2cccc(F)c2N)cc1)n1nc(-c2ccc(CN(C)C)cc2)ccc1=O [Compound I-9] | 0.5 ± 0.065 | 0.34 ± 0.013 | > 10 | – | – | – | – | 0.122 ± 0.0111 | – | –
C[C@@H](c1ccc(C(=O)Nc2ccccc2N)cc1)n1nc(-c2ccccc2)ccc1=O [Compound I-10] | 0.4 ± 0.072 | – | > 10 | – | – | – | – | 0.0505 ± 0.0137 | – | –
COc1ccc(N)c(NC(=O)c2ccc([C@H](C)n3nc(-c4ccc(CN(C)C)cc4)ccc3=O)cc2)c1 [Compound I-11] | – | – | > 10 | – | – | – | – | 0.0424 ± 0.0008 | 0.31 ± 0.037 | 0.27 ± 0.019
C[C@@H](c1ccc(C(=O)Nc2cc(F)ccc2N)cc1)n1nc(-c2ccc(CN(C)C)cc2)ccc1=O [Compound I-12] | 0.14 ± 0.004 | 0.1 | > 10 | – | – | – | – | 0.0313 ± 0.00327 | – | –
Cc1ccc(N)c(NC(=O)c2ccc([C@H](C)n3nc(-c4ccc(CN(C)C)cc4)ccc3=O)cc2)c1 [Compound I-13] | – | – | > 10 | – | – | – | – | 0.0447 ± 0.00153 | 0.22 ± 0.024 | 0.17 ± 0.002
C[C@H](c1ccc(C(=O)Nc2ccc(F)cc2N)cc1)n1nc(-c2ccc(CN(C)C)cc2)ccc1=O [I-1 (R configuration), reference compound] | – | – | > 10 | 0.72 ± 0.196 | > 100 | > 100 | 0.32 ± 0.048 | 0.375 ± 0.0421 | 1.55 ± 0.094 | 1.06 ± 0.079
Nc1ccccc1NC(=O)c1ccc(CNC(=O)OCc2cccnc2)cc1 [MS-275, Entinostat, reference compound] | 1.48 ± 0.008 | 0.39 | – | – | – | – | – | – | – | –
